Laboratory results taken from the NIST ThermoML archive (doi:10.1021/acs.jced.7b00106).
Where “and” joins values, the source holds several entries; their conditions need not be identical. Equal values may be shown once. Numbers after ± are expanded uncertainties.

Conditions: Hot wire method

FC(F)(F)/C=C/Cl [(E)-1-chloro-3,3,3-trifluoroprop-1-ene]
thermal conductivity (403.42 K, 5979 kPa, Liquid): 0.05892 ± 0.0013 W/m/K
thermal conductivity (403.43 K, 18618 kPa, Liquid): 0.06817 ± 0.00095 W/m/K
thermal conductivity (403.44 K, 18637 kPa, Liquid): 0.06808 ± 0.0018 W/m/K
thermal conductivity (403.48 K, 4696 kPa, Liquid): 0.0577 ± 0.00073 W/m/K
thermal conductivity (403.48 K, 4700 kPa, Liquid): 0.05772 ± 0.00068 W/m/K
thermal conductivity (403.49 K, 9102 kPa, Liquid): 0.06156 ± 0.0028 W/m/K
thermal conductivity (403.49 K, 9108 kPa, Liquid): 0.06159 ± 0.0025 W/m/K
thermal conductivity (403.53 K, 3569 kPa, Liquid): 0.05653 ± 0.0008 W/m/K
thermal conductivity (403.54 K, 3575 kPa, Liquid): 0.05665 ± 0.0026 W/m/K
thermal conductivity (403.54 K, 15778 kPa, Liquid): 0.06628 ± 0.00074 W/m/K
thermal conductivity (403.54 K, 15782 kPa, Liquid): 0.06631 ± 0.0011 W/m/K
thermal conductivity (403.58 K, 7083 kPa, Liquid): 0.05991 ± 0.001 W/m/K
thermal conductivity (403.58 K, 7093 kPa, Liquid): 0.05996 ± 0.00074 W/m/K
thermal conductivity (403.59 K, 2636 kPa, Liquid): 0.0556 ± 0.00085 W/m/K
thermal conductivity (403.6 K, 2641 kPa, Liquid): 0.05565 ± 0.0018 W/m/K
thermal conductivity (420.8 K, 2579 kPa, Fluid (supercritical or subcritical phases)): 0.02548 ± 0.0011 W/m/K
thermal conductivity (420.81 K, 2579 kPa, Fluid (supercritical or subcritical phases)): 0.02537 ± 0.012 W/m/K
thermal conductivity (420.9 K, 2520 kPa, Fluid (supercritical or subcritical phases)): 0.02499 ± 0.0018 W/m/K and 0.02461 ± 0.011 W/m/K
thermal conductivity (420.92 K, 2579 kPa, Fluid (supercritical or subcritical phases)): 0.02548 ± 0.01 W/m/K and 0.02551 ± 0.0099 W/m/K
thermal conductivity (421 K, 2520 kPa, Fluid (supercritical or subcritical phases)): 0.02479 ± 0.005 W/m/K
thermal conductivity (421.01 K, 2519 kPa, Fluid (supercritical or subcritical phases)): 0.0248 ± 0.005 W/m/K
thermal conductivity (421.03 K, 2579 kPa, Fluid (supercritical or subcritical phases)): 0.02568 ± 0.0091 W/m/K
thermal conductivity (421.04 K, 2579 kPa, Fluid (supercritical or subcritical phases)): 0.02548 ± 0.0082 W/m/K
thermal conductivity (421.11 K, 2519 kPa, Fluid (supercritical or subcritical phases)): 0.02483 ± 0.012 W/m/K
thermal conductivity (421.11 K, 2520 kPa, Fluid (supercritical or subcritical phases)): 0.02479 ± 0.012 W/m/K
thermal conductivity (421.15 K, 2469 kPa, Fluid (supercritical or subcritical phases)): 0.02425 ± 0.0067 W/m/K and 0.02441 ± 0.0042 W/m/K
thermal conductivity (421.16 K, 2579 kPa, Fluid (supercritical or subcritical phases)): 0.02588 ± 0.013 W/m/K
thermal conductivity (421.16 K, 2580 kPa, Fluid (supercritical or subcritical phases)): 0.02588 ± 0.012 W/m/K
thermal conductivity (421.21 K, 2403 kPa, Fluid (supercritical or subcritical phases)): 0.02382 ± 0.0043 W/m/K
thermal conductivity (421.24 K, 2520 kPa, Fluid (supercritical or subcritical phases)): 0.02505 ± 0.0044 W/m/K
thermal conductivity (421.25 K, 2307 kPa, Fluid (supercritical or subcritical phases)): 0.02316 ± 0.0027 W/m/K and 0.02317 ± 0.0027 W/m/K
thermal conductivity (421.25 K, 2520 kPa, Fluid (supercritical or subcritical phases)): 0.02484 ± 0.0096 W/m/K
thermal conductivity (421.29 K, 2203 kPa, Fluid (supercritical or subcritical phases)): 0.02266 ± 0.0062 W/m/K
thermal conductivity (421.29 K, 2204 kPa, Fluid (supercritical or subcritical phases)): 0.02272 ± 0.0035 W/m/K
thermal conductivity (421.29 K, 2468 kPa, Fluid (supercritical or subcritical phases)): 0.02448 ± 0.012 W/m/K
thermal conductivity (421.3 K, 2469 kPa, Fluid (supercritical or subcritical phases)): 0.02444 W/m/K
thermal conductivity (421.32 K, 2099 kPa, Fluid (supercritical or subcritical phases)): 0.02221 ± 0.0044 W/m/K
thermal conductivity (421.33 K, 2099 kPa, Fluid (supercritical or subcritical phases)): 0.02225 ± 0.004 W/m/K
thermal conductivity (421.35 K, 2403 kPa, Fluid (supercritical or subcritical phases)): 0.02395 ± 0.0049 W/m/K and 0.02391 ± 0.0048 W/m/K
thermal conductivity (421.36 K, 1997 kPa, Fluid (supercritical or subcritical phases)): 0.02198 ± 0.0083 W/m/K and 0.02199 ± 0.0082 W/m/K
thermal conductivity (421.39 K, 2307 kPa, Fluid (supercritical or subcritical phases)): 0.02322 ± 0.0055 W/m/K
thermal conductivity (421.39 K, 2519 kPa, Fluid (supercritical or subcritical phases)): 0.02527 W/m/K
thermal conductivity (421.39 K, 2520 kPa, Fluid (supercritical or subcritical phases)): 0.02527 W/m/K
thermal conductivity (421.4 K, 1861 kPa, Fluid (supercritical or subcritical phases)): 0.0216 ± 0.0048 W/m/K
thermal conductivity (421.4 K, 1862 kPa, Fluid (supercritical or subcritical phases)): 0.02165 ± 0.0044 W/m/K
thermal conductivity (421.44 K, 1724 kPa, Fluid (supercritical or subcritical phases)): 0.02132 ± 0.002 W/m/K
thermal conductivity (421.44 K, 2203 kPa, Fluid (supercritical or subcritical phases)): 0.02269 ± 0.0039 W/m/K
thermal conductivity (421.44 K, 2469 kPa, Fluid (supercritical or subcritical phases)): 0.02473 ± 0.0088 W/m/K and 0.02459 ± 0.0083 W/m/K
thermal conductivity (421.45 K, 1723 kPa, Fluid (supercritical or subcritical phases)): 0.02131 ± 0.0021 W/m/K
thermal conductivity (421.45 K, 2204 kPa, Fluid (supercritical or subcritical phases)): 0.02274 ± 0.0038 W/m/K
thermal conductivity (421.48 K, 2100 kPa, Fluid (supercritical or subcritical phases)): 0.02256 ± 0.0052 W/m/K and 0.02228 ± 0.0058 W/m/K
thermal conductivity (421.51 K, 2403 kPa, Fluid (supercritical or subcritical phases)): 0.02407 ± 0.0069 W/m/K and 0.02398 ± 0.0066 W/m/K
thermal conductivity (421.52 K, 1998 kPa, Fluid (supercritical or subcritical phases)): 0.02205 ± 0.0031 W/m/K and 0.02199 ± 0.0032 W/m/K
thermal conductivity (421.53 K, 1561 kPa, Fluid (supercritical or subcritical phases)): 0.02097 ± 0.0043 W/m/K
thermal conductivity (421.54 K, 1562 kPa, Fluid (supercritical or subcritical phases)): 0.02106 ± 0.0038 W/m/K
thermal conductivity (421.56 K, 2307 kPa, Fluid (supercritical or subcritical phases)): 0.02344 ± 0.0063 W/m/K and 0.02334 ± 0.0064 W/m/K
thermal conductivity (421.57 K, 1862 kPa, Fluid (supercritical or subcritical phases)): 0.02171 ± 0.0022 W/m/K
thermal conductivity (421.57 K, 1863 kPa, Fluid (supercritical or subcritical phases)): 0.02167 ± 0.0023 W/m/K
thermal conductivity (421.58 K, 1402 kPa, Fluid (supercritical or subcritical phases)): 0.02076 ± 0.0031 W/m/K
thermal conductivity (421.59 K, 1402 kPa, Fluid (supercritical or subcritical phases)): 0.02091 ± 0.0021 W/m/K
thermal conductivity (421.61 K, 2204 kPa, Fluid (supercritical or subcritical phases)): 0.02283 ± 0.0044 W/m/K
thermal conductivity (421.62 K, 1724 kPa, Fluid (supercritical or subcritical phases)): 0.02136 ± 0.0017 W/m/K
thermal conductivity (421.62 K, 2203 kPa, Fluid (supercritical or subcritical phases)): 0.02292 ± 0.0051 W/m/K
thermal conductivity (421.62 K, 2616 kPa, Liquid): 0.0497 ± 0.007 W/m/K
thermal conductivity (421.63 K, 1724 kPa, Fluid (supercritical or subcritical phases)): 0.0214 ± 0.0018 W/m/K
thermal conductivity (421.63 K, 2616 kPa, Liquid): 0.04969 ± 0.0076 W/m/K
thermal conductivity (421.64 K, 1220 kPa, Fluid (supercritical or subcritical phases)): 0.02082 ± 0.0018 W/m/K
thermal conductivity (421.64 K, 1221 kPa, Fluid (supercritical or subcritical phases)): 0.02077 ± 0.0041 W/m/K
thermal conductivity (421.66 K, 2099 kPa, Fluid (supercritical or subcritical phases)): 0.02245 ± 0.0047 W/m/K
thermal conductivity (421.66 K, 2100 kPa, Fluid (supercritical or subcritical phases)): 0.02244 ± 0.0047 W/m/K
thermal conductivity (421.67 K, 2403 kPa, Fluid (supercritical or subcritical phases)): 0.02364 ± 0.0028 W/m/K
thermal conductivity (421.68 K, 1031 kPa, Fluid (supercritical or subcritical phases)): 0.02073 ± 0.00097 W/m/K
